From PubChem BioAssay AID1918995 (Molecular Pharmacology Branch, DTP, NCI, 2023)

Test system: 324938-238-R-J1-PDC complex spheroid growth, % test/control
Assay: Anticancer human tumor 324938-238-R-J1-PDC patient-derived bladder carcinoma cell line growth inhibition [AhR]
Conditions: for IC50: curve of first compound; for viability, T/C: stronger effect = lower value
Outline: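 Spheroids combined tumor cells with HUVEC endothelial cells and human MSCs as stroma. AhR antagonists were paired with standard or investigational drugs, each dosed in half-log steps down from near clinical Cmax, or from 10 microM where Cmax was unknown.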
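Further: spheroids exposed to agents for seven days before viability read.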

SMILES: CC(C)c1c(-c2ccccc2)nc2c(C#N)c[nH]n2c1=O + Cc1cncc(-c2nc(NCCc3c[nH]c4ccccc34)c3ncn(C(C)C)c3n2)c1
- IC50 (second compound 0.1 µM): > 10 µM
- IC50 (second compound 0.316 µM): > 10 µM
- IC50 (second compound 1 µM): > 10 µM
- IC50 (second compound 3.16 µM): > 10 µM
- IC50 (second compound 10 µM): < 0.0316 µM
- viability, T/C (second compound 0.1 µM, first compound 0.0316 µM): 127%
- viability, T/C (second compound 0.1 µM, first compound 0.1 µM): 85.5%
- viability, T/C (second compound 0.1 µM, first compound 0.316 µM): 95.3%
- viability, T/C (second compound 0.1 µM, first compound 1 µM): 63.9%
- viability, T/C (second compound 0.1 µM, first compound 3.16 µM): 69.6%
- viability, T/C (second compound 0.1 µM, first compound 10 µM): 146%
- viability, T/C (second compound 0.316 µM, first compound 0.0316 µM): 124%
- viability, T/C (second compound 0.316 µM, first compound 0.1 µM): 129%
- viability, T/C (second compound 0.316 µM, first compound 0.316 µM): 89.1%
- viability, T/C (second compound 0.316 µM, first compound 1 µM): 102%
- viability, T/C (second compound 0.316 µM, first compound 3.16 µM): 113%
- viability, T/C (second compound 0.316 µM, first compound 10 µM): 96.4%
- viability, T/C (second compound 1 µM, first compound 0.0316 µM): 119%
- viability, T/C (second compound 1 µM, first compound 0.1 µM): 85.3%
- viability, T/C (second compound 1 µM, first compound 0.316 µM): 83.5%
- viability, T/C (second compound 1 µM, first compound 1 µM): 90.8%
- viability, T/C (second compound 1 µM, first compound 3.16 µM): 130%
- viability, T/C (second compound 1 µM, first compound 10 µM): 102%
- viability, T/C (second compound 3.16 µM, first compound 0.0316 µM): 101%
- viability, T/C (second compound 3.16 µM, first compound 0.1 µM): 68.8%
- viability, T/C (second compound 3.16 µM, first compound 0.316 µM): 76.8%
- viability, T/C (second compound 3.16 µM, first compound 1 µM): 63.8%
- viability, T/C (second compound 3.16 µM, first compound 3.16 µM): 75.8%
- viability, T/C (second compound 3.16 µM, first compound 10 µM): 102%
- viability, T/C (second compound 10 µM, first compound 0.0316 µM): 2.26%
- viability, T/C (second compound 10 µM, first compound 0.1 µM): 3.22%
- viability, T/C (second compound 10 µM, first compound 0.316 µM): 2.43%
- viability, T/C (second compound 10 µM, first compound 1 µM): 3.77%
- viability, T/C (second compound 10 µM, first compound 3.16 µM): 3.8%
- viability, T/C (second compound 10 µM, first compound 10 µM): 1.68%
